In US20230130103A1, “TARGETED PHARMACOLOGICAL THERAPEUTICS IN UVEAL MELANOMA” (Washington University, priority 2017, published 2023):
Starred links: 1 amine or outer side, 2 acyl side, 3 side chain; linkers in the order of their positions; H or OH if unused. Positions of bridges follow the written chain, without caps; N, C: chain ends. Non-standard residues stand in square brackets, D forms with d. Residues, ends and D or L forms follow the SMILES beside them. *: point of attachment. Leu(3R-OH,Nα-propionyl) = CCC(=O)N[C@H](C(=O)*)[C@H](O)C(C)C; X1 = CC(C)[C@@H](O[*:3])[C@H](N[*:1])C(=O)[*:2]; X2 = CC(C)[C@H](O[*:3])[C@@H](N[*:1])C(=O)[*:2]; NMeaThr = CN[C@H](C(=O)O)[C@H](C)O; dPhLac = O=C(O)[C@H](O)Cc1ccccc1; NMeA = CN[C@@H](C)C(=O)O; NMeDha = C=C(NC)C(=O)O

How the values were obtained:
Gαi/q = assay: In vitro nucleotide exchange (BODIPY-GTPγS fluorescence); type: biochemical; details: FIG. 2B
[1] = tested on: constitutively active Gαq bearing FR binding site mutations; assay: SRE(L) promoter-driven transcriptional reporter; type: cell-based; details: read-out: IC50, inhibition of transcriptional reporter induction
Description: (§1) (FIG. 1A-1C) depicts the effect of FR on the activity state of Gα subunits as determined by interaction with Gβγ or RGS domains in split luciferase complementation assays. FIG. 1A Effect of FR on interaction of Gβγ2 with the indicated wild type (WT) or mutant constitutively active (Q/L) forms of Gα (q) or Gα13 (13). * p<0.01; ** p<0.05. FIG. 1B Potency of FR as a driver of interaction of Gβγ2 with wild type or mutant constitutively active Gαq. FIG. 1C Potency of FR as inhibitor of interaction of RGS2 with mutant constitutively active (Q/L) Gαq, or interaction of the RGS domain of LARG (LARG-RGS) with mutant constitutively active Gα13. FIG. 1D Potency of FR as inhibitor of signal transduction by constitutively active Gαq or Gα13 detected with an SRE(L) promoter-driven transcriptional reporter. Constitutively active Gαq (Q/L), constitutively active Gαq bearing the indicated FR binding site mutations, and constitutively Gα13 (Q/L) were studied.
(§2) Assays of transcriptional reporters driven by YAP or Gα subunits were performed as described (42, 43). YAP- or Ga-driven firefly luciferase activity was normalized to Renilla luciferase expressed from a constitutive promoter.

[2] = tested on: constitutively active Gα13; assay: SRE(L) promoter-driven transcriptional reporter; type: cell-based; details: driven by constitutively active Gα13
Description: as §1, §2

[3] = tested on: constitutively active Gαq; assay: SRE(L) promoter-driven transcriptional reporter; type: cell-based; details: driven by constitutively active Gαq; FIG. 1D; read-out: IC50, inhibition of transcriptional reporter induction
Description: as §1, §2

Mel202 cells [4] = assay: Melanocytic re-differentiation (morphology, pigmentation, immunostaining); type: cell-based, Human
Experimental: (§3) FIG. 5A Morphological changes elicited by FR. UM cell lines were treated 3 d with FR and imaged by phase contrast microscopy. FR caused UM cells driven by constitutively active Gαq (92.1 and Mel202) to lose their characteristic spindle shaped and assume a stellate shape with multiple projections. FR had no effect on BRAF-driven UM cells (OCM-1A). FIG. 5B Melanocytic differentiation of FR-treated UM cells indicated by pigmentation. UM cell lines were treated 3 d with FR. Cells were pelleted and examined macroscopically. […] Scale bar=50 μm.
(§4) Cell fixation was carried out by adding an equal volume of 2×fixative (PBS with 4% paraformaldehyde and 0.4% glutaraldehyde) to UM cells in RPMI growth medium. After 15 min at 37° C., cells were permeabilized with 0.1% Triton X-100 in PBS for 5 min, washed with PBS, and blocked with 2% fish gelatin (Sigma-Aldrich) in PBS. Primary and secondary antibodies were diluted in 2% fish gelatin in PBS. Primary antibodies included mouse monoclonal anti-pre-melanosomal protein (One World Lab, San Diego, Calif.), rabbit polyclonal anti-tyrosinase (One World Lab), rabbit polyclonal anti-dopachrome tautomerase (One World Lab), rabbit polyclonal anti-S100 (DakoCytomation, Denmark), and mouse monoclonal anti-BrdU (Life Technologies). Secondary antibodies were Alexa-fluor conjugates (Life Technologies), and the mounting agent was ProLong Gold (Life Technologies). Cell morphology was assessed by phase contrast imaging with an inverted microscope (Olympus IX72) using a 10×objective.

OCM-1A cells = assay: as above; type: cell-based, Human; details: 3 d FR, FIG. 5A
Experimental: as §3, §4

Gαi/q(R54K) [5] = type: cell-based; details: Gαi/q(R54K) vs Gαi/q
Gαi/q(R54K) [6] = target: T1, Gαi/q(R54K) (Homo sapiens, UniProt P63096, C351G, form not given); type: cell-based; details: read-out: IC50, attenuation of cannabinoid type 1 receptor inhibition of forskolin-induced cAMP accumulation; via Gαi/q(R54K); Neuro2A cells; FIG. 2C
T1 construct: […]

[7] = target: T2, wild type Gαq interacting with Gβγ2 (Homo sapiens, UniProt P50148); assay: Split luciferase complementation, Gα interaction with Gβγ2; type: cell-based; details: HEK-293 cells, 18 h, FIG. 1B, read-out: EC50, increase of split luciferase complementation
T2 construct: expressed in transfected cells; host or cells: HEK-293
Description: as §1
(§5) To detect protein-protein interactions, a split luciferase complementation assays was used (23), as employed to study activation state-dependent interaction between Gα subunits and cognate binding partners (24).
(§6) Split luciferase assays were performed as described (24). The N-terminal portion of click beetle green luciferase (CBGN) was inserted into the αB-αC loop within the helical domain of wild type (WT) and constitutively active (Q/L) mutant forms of Gα and Gα13. Insertion of foreign proteins at this site preserves Gαfunction (40). The C-terminal region of click beetle green luciferase (CBGC) was fused to the N-termini of G131 (which was co-expressed with untagged Gγ2), RGS2, and the RGS domain of LARG, which interacts with Gal 3 only in the active GTP-bound state (41). HEK-293 cells transiently transfected with various combinations of tagged proteins were treated 18 h with vehicle(DMSO) or FR and luciferase assays were performed to measure reconstituted luciferase activity.

wild type Gα13 with Gβγ2 = target: T3, wild type Gα13 with Gβγ2 (Homo sapiens, UniProt Q14344); assay: as above; type: cell-based; details: FIG. 1A
T3 construct: expressed in transfected cells; host or cells: HEK-293
Description: as §1, §5, §6

[8] = target: T4, constitutively active Gα13 with Gβγ2 (Homo sapiens, UniProt Q14344, Q226L); assay: as above; type: cell-based; details: FIG. 1A
T4 construct: expressed in transfected cells; host or cells: HEK-293
T4 sequence (Q14344 1-377 Q226L): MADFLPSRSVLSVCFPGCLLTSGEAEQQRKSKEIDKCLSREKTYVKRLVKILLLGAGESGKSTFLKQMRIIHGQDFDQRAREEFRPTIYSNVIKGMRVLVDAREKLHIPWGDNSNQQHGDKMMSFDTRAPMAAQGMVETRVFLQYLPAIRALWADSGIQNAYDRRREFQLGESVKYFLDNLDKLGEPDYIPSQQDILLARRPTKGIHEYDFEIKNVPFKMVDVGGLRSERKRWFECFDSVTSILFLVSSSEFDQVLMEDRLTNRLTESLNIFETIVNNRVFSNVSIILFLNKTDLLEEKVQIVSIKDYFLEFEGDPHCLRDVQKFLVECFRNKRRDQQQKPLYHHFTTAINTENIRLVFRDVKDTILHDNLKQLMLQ
Description: as §1, §5, §6

Mel202 cells [9] = assay: Flow cytometry of DNA content (proliferation and apoptosis); details: 3 d, FIG. 4C-D
Experimental: Cells were cultured at 37.0 in 5% CO2. […] Cell lines were grown in RPMI 1640 medium (Life Technologies, Carlsbad, Calif.) supplemented with 10% FBS and antibiotics. Cell viability was measured using a water-soluble tetrazolium salt, WTS-8 (Bimake, Houston, Tex.), following the manufacturer's protocol. Flow cytometry for analysis of cell proliferation and apoptosis was performed at the Siteman Cancer Center Flow Cytometry Core on a FACScan analyzer (BD Biosciences, San Diego Calif., USA) using a standard propidium iodide staining protocol as described previously (44).

T3 sequence (P59768 2-68): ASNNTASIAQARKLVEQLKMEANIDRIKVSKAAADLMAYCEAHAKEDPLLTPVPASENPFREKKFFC
T3 sequence (Q14344 whole entry): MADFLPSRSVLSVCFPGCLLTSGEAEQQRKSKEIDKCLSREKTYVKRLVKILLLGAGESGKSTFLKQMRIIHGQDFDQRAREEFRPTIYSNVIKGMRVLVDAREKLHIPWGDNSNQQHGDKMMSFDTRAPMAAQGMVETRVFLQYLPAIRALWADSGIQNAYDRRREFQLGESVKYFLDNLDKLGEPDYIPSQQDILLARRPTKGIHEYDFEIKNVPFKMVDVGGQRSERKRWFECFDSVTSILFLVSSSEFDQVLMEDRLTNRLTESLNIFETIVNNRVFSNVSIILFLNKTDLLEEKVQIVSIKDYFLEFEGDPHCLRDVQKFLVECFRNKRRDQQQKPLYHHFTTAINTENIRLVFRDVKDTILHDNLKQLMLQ
T3 sequence (P62873 whole entry, further chain): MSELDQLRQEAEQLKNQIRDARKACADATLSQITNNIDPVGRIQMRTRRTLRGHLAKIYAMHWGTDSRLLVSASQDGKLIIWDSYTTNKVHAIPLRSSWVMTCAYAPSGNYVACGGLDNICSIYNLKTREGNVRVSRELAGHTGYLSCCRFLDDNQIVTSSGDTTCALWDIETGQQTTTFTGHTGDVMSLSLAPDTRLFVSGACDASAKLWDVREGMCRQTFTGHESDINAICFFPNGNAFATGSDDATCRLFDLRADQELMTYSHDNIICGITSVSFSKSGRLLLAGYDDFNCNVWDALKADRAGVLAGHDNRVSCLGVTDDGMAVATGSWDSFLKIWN
T2 sequence (P50148 whole entry): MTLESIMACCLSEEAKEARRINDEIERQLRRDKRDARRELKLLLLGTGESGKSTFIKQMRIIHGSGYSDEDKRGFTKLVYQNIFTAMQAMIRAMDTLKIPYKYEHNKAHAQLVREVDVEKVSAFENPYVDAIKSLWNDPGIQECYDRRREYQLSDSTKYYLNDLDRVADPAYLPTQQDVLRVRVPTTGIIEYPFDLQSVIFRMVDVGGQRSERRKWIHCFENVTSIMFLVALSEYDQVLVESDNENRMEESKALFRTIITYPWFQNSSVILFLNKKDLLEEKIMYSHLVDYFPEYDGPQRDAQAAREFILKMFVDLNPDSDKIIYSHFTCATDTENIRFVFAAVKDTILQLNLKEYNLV
T2 sequence (P59768 2-68, further chain): as the sequence (P59768 2-68) above
T2 sequence (P62873 whole entry, further chain): as the sequence (P62873 whole entry, further chain) above
T1 sequence (P63096 whole entry V50I/Y69F/V72L/K180P/V185I/T187Y/H188P/C351G, form open): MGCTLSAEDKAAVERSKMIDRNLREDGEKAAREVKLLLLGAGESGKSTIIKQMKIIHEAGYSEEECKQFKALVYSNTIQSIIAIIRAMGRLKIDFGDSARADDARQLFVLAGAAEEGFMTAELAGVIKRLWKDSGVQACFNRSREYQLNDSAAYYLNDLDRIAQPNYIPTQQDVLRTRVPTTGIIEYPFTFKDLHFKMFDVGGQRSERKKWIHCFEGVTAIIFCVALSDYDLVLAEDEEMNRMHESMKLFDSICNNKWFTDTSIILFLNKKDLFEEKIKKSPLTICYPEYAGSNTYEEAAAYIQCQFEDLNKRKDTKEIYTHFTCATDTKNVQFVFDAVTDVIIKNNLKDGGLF

For C=C1C(=O)N[C@@H](C)C(=O)N(C)[C@@H](C)C(=O)N[C@H]([C@@H](OC(=O)[C@@H](NC(=O)CC)[C@H](O)C(C)C)C(C)C)C(=O)N(C)[C@@H]([C@H](C)OC)C(=O)O[C@H](C(C)C)[C@H](NC(C)=O)C(=O)O[C@H](Cc2ccccc2)C(=O)N1C [FR, [(1S)-1-[(3S,6R,9S,12S,18R,21S,22R)-21-acetamido-18-benzyl-3-[(1S)-1-methoxyethyl]-4,9,10,12,16-pentamethyl-15-methylidene-2,5,8,11,14,17,20-heptaoxo-22-propan-2-yl-1,19-dioxa-4,7,10,13,16-pentazacyclodocos-6-yl]-2-methylpropyl] (2S,3R)-3-hydroxy-4-methyl-2-(propanoylamino)pentanoate] (Ac-[X1][dPhLac][NMeDha]A[NMeA][X2](Leu(3R-OH,Nα-propionyl))[NMeaThr](Me); ester 1-C), the “in vitro nucleotide exchange” value (Gαi/q) was “inhibited”, the IC50 [1] was 30 to 70 nM and the “effect on expression of the transcriptional reporter” value [2] was “no effect”. For the same compound, the IC50 [3] was 1 nM, the “cell morphology (phase contrast)” value (Mel202 cells [4]; 3 d FR, FIG. 5A) was “morphological changes indicative of re-differentiation” and the melanocytic pigmentation (Mel202 cells [4]; 3 d FR, FIG. 5B) was “strikingly increased”. The “expression levels of TYR, DCT and PMEL (immunofluorescence)” value (Mel202 cells [4]; FIG. 5C) was “increased”, the “cell morphology (phase contrast)” value (OCM-1A cells) was “no effect” and the “fold less potent than toward Gαi/q, cAMP signaling” value (Gαi/q(R54K) [5]) was ~30 fold. For the same compound, the IC50 (Gαi/q(R54K) [6]) was ~800 nM, the EC50 [7] was 3 nM and the “effect on interaction with Gβγ2” value (wild type Gα13 with Gβγ2) was “lack of effect”. The “effect on interaction with Gβγ2” value [8] was “lack of effect”, the “apoptosis (sub-G1/G0 cells)” value (Mel202 cells [9]) was “increased levels of sub-G1/G0 cells” and the “cell cycle inhibition (decreased levels of S- and G2/M-phase cells)” value (Mel202 cells [9]) was “induced cell cycle inhibition”.
